Data set [1] is described as follows: Qualitative solubility of the HTM in chlorobenzene (spin-coat solution). Type of data set: physicochemical. As to conditions: for solubility: organic solvent or mixture; for solubility compared with reference materials: in words. The procedure:
A solution for a spin-coat is prepared in a N2 glove box as follows: at first, 20 mg of a hole transport material is dissolved in 95 μL of chlorobenzene. The hole transport material needs to be dissolved completely. A mother solution of lithium bis(trifluorosulfonyl)imide (LiTFSI) and tert-butylpyridine (TBP) is prepared separately at room temperature and is added to the hole transporter solution to set the molar ratio to [hole transporter]:[LiTFSI]:[TBP]=10:1:10 at room temperature. Thus the final volume of the solution is 100 μL.
The solubility of the HTMs according to examples 1, 2 and 3 are evaluated qualitatively:
1 means: 20 mg of HTM is completely dissolved without heating
2 means: HTM is dissolved after heating to 80° C.
3 means: HTM is dissolved after adding salt and base solution and heating to 80° C.
4 means: HTM is dissolved after adding another 50 μL of chlorobenzene and heat to 80° C. (final folume 150 μl).

Data set [2] in a line: Hole mobility by impedance spectroscopy. As to conditions: for Hole mobility: ITO/PEDOT-PSS/HTM(400 nm)/Au cell, dc field intensity 10^5V/cm, four cells. Type of data set: physicochemical. The procedure:
The hole mobility of the inventive compound 2,2′,7,7′-tetrakis-(N,N′-di-4-methoxy-3-methylphenylamine)-9,9′-spirobifluorene is measured and the value is compared with those of the reference materials according to example 2 and example 3.
The structure of the measurement cell is ITO(200 nm)/PEDOT-PSS(150 nm)/HTM(400 nm)/Au(60 nm).
The measurement is carried out using four cells for each HTM by means of impedance spectroscopy. (Ref. 1. H. Martens et al., Phys. Rev. B, 60, R8489 (1999), Ref. 2. S. Ishihara, et al., Proc. of IDW'09, p 1085 (2009)). In the impedance measurement, a direct current (dc) voltage is applied to the test cell in order to inject holes from an anode. The hole mobility is determined under the dc field intensity of 10^5V/cm.

For data set [3] the following is noted: order of magnitude, background; cited from earlier work.
Setting [4] is: 20 mg of HTM in 95 μL chlorobenzene completely dissolved without heating, read-out: solubility grade 1.

We go through four compounds from US9997714B2, “Hole transport material” (MERCK PATENT GMBH, priority 2013, dated 2018).

SMILES strings stand for the structures. Read-outs that look alike come from different tables or passages of the source.

Regarding `COc1c(C)cc(N(c2cc(C)c(OC)c(C)c2)c2ccc3c(c2)C2(c4cc(N(c5cc(C)c(OC)c(C)c5)c5cc(C)c(OC)c(C)c5)ccc4-3)c3cc(N(c4cc(C)c(OC)c(C)c4)c4cc(C)c(OC)c(C)c4)ccc3-c3ccc(N(c4cc(C)c(OC)c(C)c4)c4cc(C)c(OC)c(C)c4)cc32)cc1C` [Example 3], in data set [1] (HTM dissolved after adding another 50 μL of chlorobenzene and heat to 80° C., final volume 150 μl), the “solubility grade 4” value was “✓”. Also, the solubility (commonly the concentration that dissolves in the medium under given conditions) in data set [1] (chlorobenzene with LiTFSI and tert-butylpyridine solution, HTM dissolved after adding salt and base solution and heating to 80° C., read-out: solubility grade 3) was less than 210 mg/mL; in data set [1] (chlorobenzene, HTM dissolved after heating to 80° C., read-out: solubility grade 2), less than 210 mg/mL; in data set [1] (setting [4]) it was less than 210 mg/mL. Also, in data set [2], the Hole mobility was found to be 9.34E−06 cm^2/Vs.

For `COc1ccc(N(c2ccc(OC)cc2)c2ccc3c(c2)C2(c4cc(N(c5ccc(OC)cc5)c5ccc(OC)cc5)ccc4-3)c3cc(N(c4ccc(OC)cc4)c4ccc(OC)cc4)ccc3-c3ccc(N(c4ccc(OC)cc4)c4ccc(OC)cc4)cc32)cc1` [Example 2, 2,2′,7,7′-tetrakis-(N,N′-di-4-methoxyphenylamine)-9,9′-spirobifluorene], in data set [1] (HTM dissolved after heating to 80° C.), the “solubility grade 2” value is listed as “✓”. Besides, the solubility in data set [1] (setting [4]) was less than 210 mg/mL. Also, the charge carrier mobility in data set [3] is listed as ~10^−4 cm^2/Vs. The compound also returned a Hole mobility in data set [2] of 1.08E−04 cm^2/Vs.

Regarding `COc1ccc(N(c2ccc(OC)c(C)c2)c2ccc3c(c2)C2(c4cc(N(c5ccc(OC)c(C)c5)c5ccc(OC)c(C)c5)ccc4-3)c3cc(N(c4ccc(OC)c(C)c4)c4ccc(OC)c(C)c4)ccc3-c3ccc(N(c4ccc(OC)c(C)c4)c4ccc(OC)c(C)c4)cc32)cc1C` [Example 1, 2,2′,7,7′-tetrakis-(N,N′-di-4-methoxy-3-methylphenylamine)-9,9′-spirobifluorene], the “solubility grade 1” value in data set [1] (20 mg of HTM in 95 μL chlorobenzene completely dissolved without heating) was “✓”. For the same compound, the “solubility compared with reference materials” value in data set [1] (listed as compound of formula (I)) is recorded as “better solubility than spiro-OMeTAD”; in data set [1] (listed as hole transport material according to the invention), “better solubility than the reference materials”. Also, in data set [2], the Hole mobility amounted to 1.29E−04 cm^2/Vs.

Turning to `COc1ccc(N(c2ccc(OC)c(C)c2)c2ccc3c(c2)C2(c4cc(N(c5ccc(OC)c(C)c5)c5ccc(OC)c(C)c5)ccc4-3)c3cc(N(c4ccc(OC)c(C)c4)c4ccc(OC)c(C)c4)ccc3-c3ccc(N(c4ccc(OC)c(C)c4)c4ccc(OC)c(C)c4)cc32)cc1C`, in data set [2] (in words), the “hole mobility compared with reference example 3” value is on record as “more than one order of magnitude larger” and the “hole mobility compared with spiro-OMeTAD” value is “larger than the hole mobility of spiro-OMeTAD”.
